Drawing on PubChem BioAssay AID588355 (Sanford-Burnham Center for Chemical Genomics, 2011), this text covers IC50 for one compound.

Calls of active or inactive are those of the source.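 How the source made its calls: active means IC50 below 20 µM in the confirmatory dose-response test; inactive means the rest.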

The target of this test is Hexokinase HKDC1 (Homo sapiens) (UniProt Q2TB90). The test is described as follows: HKDC1 hexokinase inhibitors, SAR follow-up, biochemical, set 2 (AID 588355). The note with it: recombinant HKDC1, G6PDH/diaphorase/resazurin coupled fluorescence. In general terms: Resazurin is reduced to fluorescent resorufin, in cell work by metabolically active cells.
Hexokinase HKDC1 (Homo sapiens), sequence (Q2TB90 whole entry, looked up): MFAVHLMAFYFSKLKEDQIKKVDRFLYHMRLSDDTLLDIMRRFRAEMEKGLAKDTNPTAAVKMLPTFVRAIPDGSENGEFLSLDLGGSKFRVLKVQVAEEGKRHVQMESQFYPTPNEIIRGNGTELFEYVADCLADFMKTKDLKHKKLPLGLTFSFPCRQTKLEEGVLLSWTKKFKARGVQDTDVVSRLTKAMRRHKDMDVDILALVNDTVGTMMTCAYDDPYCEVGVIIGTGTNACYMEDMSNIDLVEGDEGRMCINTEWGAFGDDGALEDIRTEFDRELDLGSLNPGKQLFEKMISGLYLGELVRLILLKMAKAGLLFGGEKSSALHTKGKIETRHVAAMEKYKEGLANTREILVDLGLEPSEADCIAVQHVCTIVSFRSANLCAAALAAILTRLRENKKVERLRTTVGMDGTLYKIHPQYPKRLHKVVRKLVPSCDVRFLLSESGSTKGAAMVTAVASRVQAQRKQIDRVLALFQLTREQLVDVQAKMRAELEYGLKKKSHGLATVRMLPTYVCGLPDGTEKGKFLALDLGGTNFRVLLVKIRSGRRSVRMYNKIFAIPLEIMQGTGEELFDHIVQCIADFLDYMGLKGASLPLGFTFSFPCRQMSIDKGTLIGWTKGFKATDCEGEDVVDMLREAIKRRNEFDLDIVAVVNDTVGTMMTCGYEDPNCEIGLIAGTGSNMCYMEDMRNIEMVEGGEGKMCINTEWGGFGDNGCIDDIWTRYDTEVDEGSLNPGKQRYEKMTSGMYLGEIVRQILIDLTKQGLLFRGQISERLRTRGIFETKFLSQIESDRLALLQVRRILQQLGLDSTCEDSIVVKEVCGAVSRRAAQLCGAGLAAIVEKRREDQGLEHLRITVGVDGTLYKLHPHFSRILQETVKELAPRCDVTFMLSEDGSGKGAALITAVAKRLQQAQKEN

For `COc1cc2c(cc1OC)-c1cc(N3CCc4ccccc4C3)nc(=O)n1CC2`, the IC50 entry is “inactive”.
